Measurements reported in patent US9850283B2, “Macrocyclic inhibitors of the PD-1/PD-L1 and CD80(B7-1)/PD-L1 protein/protein interactions” (BRISTOL-MYERS SQUIBB COMPANY, priority 2013, dated 2017).
pIC50: −log10 of the molar value. Read-outs that look alike come from different tables or passages of the source. Starred links: 1 amine or outer side, 2 acyl side, 3 side chain; linkers in the order of their positions; H or OH if unused. Positions of bridges follow the written chain, without caps; N, C: chain ends. Non-standard residues stand in square brackets, D forms with d. Residues, ends and D or L forms follow the SMILES beside them. ξ: configuration not given here. *: point of attachment. Ala(indol-4-yl) = N[C@@H](Cc1cccc2[nH]ccc12)C(=O)O; Phe(3,4,5-F3) = N[C@@H](Cc1cc(F)c(F)c(F)c1)C(=O)O; Bip(2'-Me) = Cc1ccccc1-c1ccc(C[C@H](N)C(=O)O)cc1; Phe(3,4-(OMe)2) = COc1ccc(C[C@H](N)C(=O)O)cc1OC; d(cisHyp) = O=C(O)[C@H]1C[C@@H](O)CN1; Cyclopentanecarbonyl = O=C(C1CCCC1)*; Bta = N[C@@H](Cc1csc2ccccc12)C(=O)O; cisHyp = O=C(O)[C@@H]1C[C@H](O)CN1; ξPro(4,4-F2) = O=C(O)C1CC(F)(F)CN1; Hyp = O=C(O)[C@@H]1C[C@@H](O)CN1; NMeF = CN[C@@H](Cc1ccccc1)C(=O)O; X4 = O=C([C@H]1COCCN1[*:1])[*:2]; ξW = NC(Cc1c[nH]c2ccccc12)C(=O)O; NMeNle = CCCC[C@H](NC)C(=O)O; NMeM = CN[C@@H](CCSC)C(=O)O; ξR = N=C(N)NCCCC(N)C(=O)O; NMeA = CN[C@@H](C)C(=O)O; Orn = NCCC[C@H](N)C(=O)O; Dab = NCC[C@H](N)C(=O)O; Dap = NC[C@H](N)C(=O)O; ξP = O=C(O)C1CCCN1; ξC = NC(CS)C(=O)O; ξS = NC(CO)C(=O)O; Sar = CNCC(=O)O

Columns and labels:
[1] = target: T1, LK35.2-hPD-L1 cells / PE-labeled PD-1-Ig (Homo sapiens, UniProt Q9NZQ7); test: LK35.2-hPD-L1 cell binding high-content screening assay; format: cell-based; conditions: cluster symbol, read-out: CBA IC50 cluster
T1 construct: expressed in transfected cells; host or cells: LK35.2 mouse B cell line
Method in brief: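 Fluorescent PD-1-Ig binding to PD-L1-expressing LK35.2 cells, imaged after washing. Conditions: 1 nM PE-PD-1-Ig, 37 °C, 1 h, RPMI with 10% fetal calf serum.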

[2] = target: T2, Human PD-L1/PD-1 (Homo sapiens, UniProt Q9NZQ7); test: HTRF PD-1-Ig/PD-L1-His binding assay (human PD-L1); conditions: cluster symbol; read-out: HTRF IC50 cluster
T2 construct: made in house; host or cells: HEK293T
Method in brief: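 Interaction of Fc-tagged soluble PD-1 with His-tagged soluble PD-L1 is monitored by time-resolved FRET. Donor is europium cryptate anti-Ig (1 nM final) and acceptor is APC anti-His (20 nM final). Assay buffer is dPBS with 0.1% BSA and 0.05% Tween-20.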

[3] = cell line of CBA not given (LK35.2-hPD-L1 or 293T-hPD-L1)
[4] = cell binding assay, cell line not given

T2 sequence (Q9NZQ7 with tags, fused parts or gaps): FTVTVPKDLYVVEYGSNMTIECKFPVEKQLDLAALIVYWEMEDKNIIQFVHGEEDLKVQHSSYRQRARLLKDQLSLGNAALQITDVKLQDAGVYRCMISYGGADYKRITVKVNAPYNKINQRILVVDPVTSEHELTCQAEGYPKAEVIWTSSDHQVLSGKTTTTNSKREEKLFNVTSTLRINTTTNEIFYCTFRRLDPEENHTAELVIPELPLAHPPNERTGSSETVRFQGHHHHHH
T1 sequence (Q9NZQ7 19-290): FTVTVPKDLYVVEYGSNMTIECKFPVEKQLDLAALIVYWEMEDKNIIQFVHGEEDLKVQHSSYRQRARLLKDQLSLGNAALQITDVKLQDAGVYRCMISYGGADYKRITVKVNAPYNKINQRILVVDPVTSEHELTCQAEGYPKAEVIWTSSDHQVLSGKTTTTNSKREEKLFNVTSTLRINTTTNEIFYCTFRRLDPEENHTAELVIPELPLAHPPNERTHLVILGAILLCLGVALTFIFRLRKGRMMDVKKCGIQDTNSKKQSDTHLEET

pIC50 [1, 3]	pIC50 [2]	pIC50 [1, 4]	Structure (SMILES)
7.14 to 8.32	7.52 to 8.17	–	CCCC[C@H]1C(=O)N(C)[C@@H](CCCC)C(=O)N[C@@H](CCCNC(=N)N)C(=O)N[C@H](C(=O)NCC(N)=O)CSCC(=O)N[C@@H](Cc2ccc(OC)c(OC)c2)C(=O)N(C)[C@@H](C)C(=O)N[C@@H](CC(N)=O)C(=O)N2CCC[C@H]2C(=O)N[C@@H](Cc2cnc[nH]2)C(=O)N[C@@H](CC(C)C)C(=O)N(C)CC(=O)N[C@@H](Cc2c[nH]c3ccccc23)C(=O)N[C@@H](CO)C(=O)N[C@@H](Cc2c[nH]c3ccccc23)C(=O)N1C [Example 1105] ({CH2CO}-[Phe(3,4-(OMe)2)][NMeA]NPHL[Sar]WSW[NMeNle][NMeNle]RCG-NH2; thioether N-14)
< 7.13	< 7.52	–	CCCC[C@H]1C(=O)N(C)CC(=O)N[C@@H](CC(=O)O)C(=O)N[C@@H](C(C)C)C(=O)N(C)[C@@H](Cc2ccccc2)C(=O)N[C@@H](Cc2ccc(O)cc2)C(=O)N(C)CC(=O)N[C@@H](Cc2c[nH]c3ccccc23)C(=O)N[C@@H](Cc2ccc(O)cc2)C(=O)N[C@@H](CC(C)C)C(=O)N[C@H](C(=O)NCC(N)=O)CSCC(=O)N[C@@H](Cc2cccc3[nH]ccc23)C(=O)N(C)[C@@H](Cc2ccccc2)C(=O)N1C [Example 3103] ({CH2CO}-[Ala(indol-4-yl)][NMeF][NMeNle][Sar]DV[NMeF]Y[Sar]WYLCG-NH2; thioether N-13)
–	8.17 to 9.41	8.33 to 9.80	CCCC[C@H]1C(=O)N(C)[C@@H](CCCC)C(=O)N[C@@H](C)C(=O)N[C@H](C(=O)NCC(N)=O)CSCC(=O)N[C@@H](Cc2ccc(O)cc2)C(=O)N(C)[C@@H](C)C(=O)N[C@@H](CC(=O)O)C(=O)N2CCC[C@H]2C(=O)N[C@@H](Cc2cnc[nH]2)C(=O)N[C@@H](CCC(=O)O)C(=O)N2C[C@H](O)C[C@H]2C(=O)N[C@@H](Cc2c[nH]c3ccccc23)C(=O)N[C@@H](CCN)C(=O)N[C@@H](Cc2c[nH]c3ccccc23)C(=O)N1C [Example 5037] ({CH2CO}-Y[NMeA]DPHE[Hyp]W[Dab]W[NMeNle][NMeNle]ACG-NH2; thioether N-14)
–	8.17 to 9.41	8.33 to 9.80	CCCC[C@H]1C(=O)N2C[C@H](O)C[C@@H]2C(=O)N[C@@H](CC(=O)O)C(=O)N[C@@H](C(C)C)C(=O)N(C)[C@@H](Cc2ccccc2)C(=O)N[C@@H](CCCN)C(=O)N2CCOC[C@@H]2C(=O)N[C@@H](Cc2c[nH]c3ccccc23)C(=O)N[C@@H](Cc2ccc(O)cc2)C(=O)N[C@@H](CCCN)C(=O)N[C@H](C(=O)NCC(N)=O)CSCC(=O)N[C@@H](Cc2cc(F)c(F)c(F)c2)C(=O)N(C)[C@@H](Cc2ccccc2)C(=O)N1C [Example 3598] ({CH2CO}-[Phe(3,4,5-F3)][NMeF][NMeNle][d(cisHyp)]DV[NMeF][Orn][X4]WY[Orn]CG-NH2; thioether N-13)
< 7.13	< 7.52	–	CCCC[C@H]1C(=O)N(C)[C@@H](CCCC)C(=O)NC(CCCNC(=N)N)C(=O)NC(C(=O)NCC(N)=O)CSCC(=O)N[C@@H](Cc2ccccc2)C(=O)N(C)[C@@H](C)C(=O)N[C@@H](CC(N)=O)C(=O)N2CCCC2C(=O)N[C@@H](Cc2cnc[nH]2)C(=O)N[C@@H](CC(C)C)C(=O)N(C)CC(=O)N[C@@H](Cc2c[nH]c3ccccc23)C(=O)NC(CO)C(=O)N[C@@H](Cc2ccc(-c3ccccc3C)cc2)C(=O)N1C (stereo partly shown) [Example 1030] ({CH2CO}-F[NMeA]N[ξP]HL[Sar]W[ξS][Bip(2'-Me)][NMeNle][NMeNle][ξR][ξC]G-NH2; thioether N-14)
8.33 to 9.80	7.52 to 8.17	–	CCCC[C@H]1C(=O)N(C)[C@@H](CCCC)C(=O)N[C@@H](CCCNC(=N)N)C(=O)N[C@H](C(=O)NCC(N)=O)CSCC(=O)N[C@@H](Cc2ccc(O)cc2)C(=O)N(C)[C@@H](C)C(=O)N[C@@H](CC(N)=O)C(=O)N2CC(F)(F)CC2C(=O)N[C@@H](Cc2cnc[nH]2)C(=O)N[C@@H](CC(C)C)C(=O)N2CCC[C@H]2C(=O)NC(Cc2c[nH]c3ccccc23)C(=O)N[C@@H](CO)C(=O)N[C@@H](Cc2csc3ccccc23)C(=O)N1C (stereo partly shown) [Example 1048] ({CH2CO}-Y[NMeA]N[ξPro(4,4-F2)]HLP[ξW]S[Bta][NMeNle][NMeNle]RCG-NH2; thioether N-14)
< 7.13	< 7.52	–	CCCC[C@H]1C(=O)N(C)[C@@H](CCCC)C(=O)N[C@@H](CCCNC(=N)N)C(=O)N[C@H](C(=O)NCC(N)=O)CSCC(=O)N[C@@H](Cc2ccccc2)C(=O)N(C)[C@@H](C)C(=O)N[C@@H](CC(N)=O)C(=O)N2CCC[C@H]2C(=O)N[C@@H](Cc2cnc[nH]2)C(=O)N[C@@H](CC(C)C)C(=O)N(C)CC(=O)N[C@@H](Cc2c[nH]c3ccccc23)C(=O)N[C@H](C)C(=O)N[C@@H](Cc2c[nH]c3ccccc23)C(=O)N1C [Example 1061] ({CH2CO}-F[NMeA]NPHL[Sar]W[dA]W[NMeNle][NMeNle]RCG-NH2; thioether N-14)
–	8.17 to 9.41	8.33 to 9.80	CCCC[C@H]1C(=O)N(C)[C@@H](CCCC)C(=O)N[C@@H](CCCNC(=N)N)C(=O)NC(C(=O)N[C@@H](CO)C(N)=O)CSCC(=O)N[C@@H](Cc2ccc(O)cc2)C(=O)N(C)[C@@H](C)C(=O)N[C@@H](CC(N)=O)C(=O)N2CCC[C@H]2C(=O)N[C@@H](CO)C(=O)N[C@@H](CC(C)C)C(=O)N2C[C@H](O)C[C@H]2C(=O)N[C@@H](Cc2c[nH]c3ccccc23)C(=O)N[C@@H](CO)C(=O)N[C@@H](Cc2csc3ccccc23)C(=O)N1C (stereo partly shown) [Example 9075] ({CH2CO}-Y[NMeA]NPSL[Hyp]WS[Bta][NMeNle][NMeNle]R[ξC]S-NH2; thioether N-14)
< 7.13	< 7.52	–	CCCC[C@H]1C(=O)N[C@@H](CCCNC(=N)N)C(=O)N[C@H](C(=O)NCC(N)=O)CSCC(=O)N[C@@H](Cc2ccccc2)C(=O)N(C)[C@@H](C)C(=O)N[C@@H](CC(N)=O)C(=O)N2CCC[C@H]2C(=O)N[C@@H](Cc2cnc[nH]2)C(=O)N[C@@H](CC(C)C)C(=O)N(C)CC(=O)N[C@@H](Cc2c[nH]c3ccccc23)C(=O)N[C@@H](CO)C(=O)N[C@@H](Cc2c[nH]c3ccccc23)C(=O)N[C@@H](CNC(=O)C2CCCC2)C(=O)N1C [Example 1012] ({CH2CO}-F[NMeA]NPHL[Sar]WSW[Dap](Cyclopentanecarbonyl)[NMeNle]RCG-NH2; thioether N-14)
–	8.17 to 9.41	8.33 to 9.80	CCCC[C@H]1C(=O)N(C)[C@@H](CCCC)C(=O)N[C@@H](CCCNC(=N)N)C(=O)N[C@H](C(=O)NCC(N)=O)CSCC(=O)N[C@@H](Cc2ccc(OC)cc2)C(=O)N(C)[C@@H](C)C(=O)N[C@@H](CC(N)=O)C(=O)N2CCC[C@H]2C(=O)N[C@@H](Cc2cnc[nH]2)C(=O)N[C@@H](CC(C)C)C(=O)N2C[C@H](O)C[C@H]2C(=O)N[C@@H](Cc2c[nH]c3ccccc23)C(=O)N[C@@H](CO)C(=O)N[C@@H](Cc2c[nH]c3ccccc23)C(=O)N1C [Example 7060]
8.33 to 9.80	7.52 to 8.17	–	CCCC[C@H]1C(=O)N(C)[C@@H](CCCC)C(=O)N[C@@H](CCCNC(=N)N)C(=O)N[C@H](C(=O)NCC(N)=O)CSCC(=O)N[C@@H](Cc2ccc(O)cc2)C(=O)N(C)[C@@H](C)C(=O)N[C@@H](CC(N)=O)C(=O)N2CCC[C@H]2C(=O)N[C@@H](CN)C(=O)N[C@@H](CC(C)C)C(=O)N2C[C@H](O)C[C@H]2C(=O)N[C@@H](Cc2c[nH]c3ccccc23)C(=O)N[C@@H](CO)C(=O)N[C@@H](Cc2csc3ccccc23)C(=O)N1C [Example 1118] ({CH2CO}-Y[NMeA]NP[Dap]L[Hyp]WS[Bta][NMeNle][NMeNle]RCG-NH2; thioether N-14)
–	8.17 to 9.41	8.33 to 9.80	CCCC[C@H]1C(=O)N(C)[C@@H](CCCC)C(=O)N[C@@H](CCCNC(=N)N)C(=O)NC(C(=O)NCC(N)=O)CSCC(=O)N[C@@H](Cc2ccc(O)cc2)C(=O)N(C)[C@@H](C)C(=O)N[C@@H](CC(N)=O)C(=O)N2CCC[C@H]2C(=O)N[C@@H](CO)C(=O)N[C@@H](CC(C)C)C(=O)N2CCC[C@H]2C(=O)N[C@@H](Cc2c[nH]c3ccccc23)C(=O)N[C@@H](CO)C(=O)N[C@@H](Cc2csc3ccccc23)C(=O)N1C (stereo partly shown) [Example 9072] ({CH2CO}-Y[NMeA]NPSLPWS[Bta][NMeNle][NMeNle]R[ξC]G-NH2; thioether N-14)
8.33 to 9.80	8.17 to 9.41	–	CCCC[C@H]1C(=O)N(C)[C@@H](CCCC)C(=O)N[C@@H](CCCNC(=N)N)C(=O)N[C@H](C(=O)NCC(=O)O)CSCC(=O)N[C@@H](Cc2ccc(O)cc2)C(=O)N(C)[C@@H](C)C(=O)N[C@@H](CC(N)=O)C(=O)N2CCC[C@H]2C(=O)N[C@@H](CN)C(=O)N[C@@H](CC(C)C)C(=O)N2C[C@@H](O)C[C@H]2C(=O)N[C@@H](Cc2c[nH]c3ccccc23)C(=O)N[C@@H](CO)C(=O)N[C@@H](Cc2csc3ccccc23)C(=O)N1C [Example 1141] ({CH2CO}-Y[NMeA]NP[Dap]L[cisHyp]WS[Bta][NMeNle][NMeNle]RCG-OH; thioether N-14)
–	7.52 to 8.17	7.14 to 8.32	CCCC[C@H]1C(=O)N[C@@H](CCCNC(=N)N)C(=O)NC(C(=O)NCC(N)=O)CSCC(=O)N[C@@H](Cc2ccc(O)cc2)C(=O)N(C)[C@@H](C)C(=O)N[C@@H](CC(N)=O)C(=O)N2CCC[C@H]2C(=O)N[C@@H](Cc2cnc[nH]2)C(=O)N[C@@H](CO)C(=O)N2CCC[C@H]2C(=O)N[C@@H](Cc2c[nH]c3ccccc23)C(=O)N[C@@H](CO)C(=O)N[C@@H](Cc2c[nH]c3ccccc23)C(=O)N(C)[C@@H](CCSC)C(=O)N1C (stereo partly shown) [Example 9109] ({CH2CO}-Y[NMeA]NPHSPWSW[NMeM][NMeNle]R[ξC]G-NH2; thioether N-14)
